Experimental data from PubChem BioAssay (NCI).
“And” between values parts separate entries of the source, which are not always exact repeats. Identical values can stand only once.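 Assay format: 96-well plates, 48-hour exposure. Abbreviation: GI50, concentration required for 50% inhibition of growth. TGI is the concentration that stops growth completely.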

What was measured:
Assay in all cases: NCI tumour cell line growth inhibition, 48 h
SK-MEL-5 melanoma = test system: SK-MEL-5 melanoma
A549 NSCLC = test system: A549 NSCLC
NCI/ADR-RES ovarian = test system: NCI/ADR-RES ovarian
IGROV1 ovarian = test system: IGROV1 ovarian
SF-268 CNS = test system: SF-268 CNS
OVCAR-5 ovarian = test system: OVCAR-5 ovarian
M14 melanoma = test system: M14 melanoma
SN12C renal = test system: SN12C renal
HT29 colon = test system: HT29 colon
EKVX NSCLC = test system: EKVX NSCLC

Structure (SMILES)	GI50 (SK-MEL-5 melanoma)	TGI (SK-MEL-5 melanoma)	GI50 (A549 NSCLC)	TGI (A549 NSCLC)	GI50 (NCI/ADR-RES ovarian)	TGI (NCI/ADR-RES ovarian) [µM]	GI50 (IGROV1 ovarian)	TGI (IGROV1 ovarian)	GI50 (SF-268 CNS)	TGI (SF-268 CNS)	GI50 (OVCAR-5 ovarian)	TGI (OVCAR-5 ovarian)	GI50 (M14 melanoma)	TGI (M14 melanoma) [µM]	GI50 (SN12C renal)	TGI (SN12C renal)	GI50 (HT29 colon)	TGI (HT29 colon)	GI50 (EKVX NSCLC)	TGI (EKVX NSCLC)
O=C(N/N=C\c1ccc(N(CCCl)CCCl)cc1Cl)c1cccnc1	13.3 µM	34.8 µM	7.57 µM	73.8 µM	19.6 µM	> 94.3	1.5 µM	24.5 µM	23.4 µM	> 84 µM	0.981 µM	11.3 µM	26.5 µM	> 83.7	24.1 µM	> 84.4 µM	20.2 µM	> 88.4 µM	22.6 µM	> 83.6 µM
S=C(Nc1ccccc1)N(Cc1ccccc1)c1ccccc1		28.5 µM		> 100 µM		> 100		> 100 µM		> 100 µM		> 100 µM		> 100		> 100 µM		85.9 µM		58.4 µM
COc1ccc2c(c1)OC(N)=C(C#N)C2c1ccc(F)cc1 (stereo not drawn)	2.49 µM	18.5 µM	4.94 µM	> 100 µM	0.516 µM	> 100	2.38 µM	> 100 µM	7.38 µM	> 100 µM	14.5 µM	> 100 µM	0.529 µM	44.2	6.82 µM	> 100 µM	0.625 µM	13.5 µM	5.09 µM	> 100 µM
O=C(CN1C(=O)c2ccccc2C1=O)C(O)CN1C(=O)c2ccccc2C1=O (stereo not drawn)		> 100 µM		> 100 µM		> 100		> 100 µM		88.1 µM		> 100 µM		> 100		> 100 µM		> 100 µM		> 100 µM
Clc1nc(Cl)c(Cc2ccccc2)c(Cl)n1		8.39 µM		27.5 µM		> 100		46.7 µM		57.7 µM		38.2 µM		8.38		32 µM		25.3 µM		33.2 µM
CN(C)CCNC(=O)c1cc2c3ccccc3[nH]c2c2ncccc12	6.05 µM	20.1 µM	6.46 µM	36.9 µM	22.5 µM	> 100	1.14 µM	19.1 µM	6.37 µM	23.7 µM	20.6 µM	68.3 µM	12.1 µM	27.2	7.36 µM	39.2 µM	5.27 µM	34.1 µM	7.81 µM	38.2 µM
N#CC1=C(N)Oc2c(sc3c(F)cccc23)C1c1ccc(F)cc1 (stereo not drawn)	0.657 µM	14.3 µM	1.05 µM	19.1 µM	0.375 µM	4.36	0.621 µM	14.7 µM	1.13 µM	15.3 µM	2.95 µM	14.6 µM	0.41 µM	6.41	1.28 µM	15.8 µM	1.62 µM	12.5 µM	3.24 µM	20.2 µM
O=C(/C=C/c1ccc(C(F)(F)F)cc1)c1ccc(Nc2nc(NCCO)nc(N3CCOCC3)n2)cc1	3.16 µM	10.2 µM	2.74 µM	> 100 µM	2.87 µM	9.52	2 µM	4.42 µM	2.68 µM	11.1 µM	1.74 µM	3.97 µM	2.01 µM	4.28	2.22 µM	5.69 µM	2 µM	4.51 µM	2.44 µM	8.01 µM
COC(=O)[C@@H](C)C[C@H](Cc1ccccc1)NC(=O)c1csc([C@@H](C[C@H](C(C)C)N(C)C(=O)C2(NC(=O)[C@H]3CCCCN3C)CC2)OC(C)=O)n1	0.00374 µM and 0.00333 µM			> 33.3 µM	> 33.3 µM	> 33.3	0.00147 µM and 0.00333 µM	> 33.3 µM		> 33.3 µM		> 33.3 µM	0.00504 µM and 0.00333 µM	0.468	0.0156 µM and 0.00333 µM	> 33.3 µM	0.00351 µM and 0.00333 µM	7.65 µM		> 33.3 µM
C/C=C/C=C\C1OC(O)([C@H](CC)C(=O)NC/C=C/C=C(\C)[C@H](OC)C(C)C2OC(\C=C/C=C/C=C(\C)C(=O)c3c(O)ccn(C)c3=O)[C@H](O)[C@@H]2O)C(O)C(O)C1(C)C (stereo partly drawn)		> 100 µM		> 100 µM		> 100		> 100 µM		> 100 µM		> 100 µM		> 100		> 100 µM		> 100 µM		> 100 µM
COC(=O)c1cc2oc(/C=C3\SC(=S)N(NC(C)=O)C3=O)cc2n1Cc1ccccc1	2.08 µM	10.7 µM	5.2 µM	17.9 µM	7.77 µM	19.5	7.31 µM	> 50 µM	4.16 µM	27.6 µM	7.36 µM	19.1 µM	8.04 µM	16.4	11.3 µM	20.8 µM	3.47 µM	12.8 µM	3.08 µM	15.3 µM
COc1ccc(/C=C/C(=O)c2cc3c(N)c(C(=O)Nc4ccccc4)sc3nc2C)cc1	0.136 µM	0.862 µM	0.273 µM	> 50 µM	0.121 µM		0.252 µM	> 50 µM	0.517 µM	> 50 µM	0.385 µM	> 50 µM	0.0907 µM	> 50	0.311 µM	> 21 µM	0.179 µM	> 26.6 µM	0.752 µM	> 50 µM
CCOC1C=CCCO1 (stereo not drawn)		> 100 µM		> 100 µM		> 100		> 100 µM		> 100 µM		> 100 µM		> 100		> 100 µM		> 100 µM		> 100 µM
CC1=C(C(=O)Nc2ccc(F)c(Cl)c2)C(c2cccc(Oc3ccccc3)c2)NC(=O)N1 (stereo not drawn)	13.2 µM	26.5 µM	14.1 µM	30.2 µM	19 µM	37.2	10.7 µM	24.2 µM	15.6 µM	40.3 µM	14.9 µM	28.2 µM	15.2 µM	29.3	16.1 µM	32.8 µM	12 µM	24.5 µM	14.8 µM	31.8 µM
O=C(NCP(=O)(O)O)c1cccnc1		> 100 µM		> 100 µM		> 100		> 100 µM				> 100 µM		> 100		> 100 µM		> 100 µM		> 100 µM
CNc1nc(N(C)C)nc(N(C)C)n1	> 100 µM and 1130 µM	> 100 µM and 2840 µM	> 100 µM and 2150 µM	> 100 µM and 3500 µM		2650	> 100 µM and 1100 µM	> 100 µM and 2640 µM	> 100 µM and 2680 µM	> 100 µM and 6220 µM	> 100 µM and 909 µM	> 100 µM and 3960 µM		2600	> 100 µM and 2050 µM	> 100 µM and 3960 µM	> 100 µM and 518 µM	> 100 µM and 3650 µM	> 100 µM and 2180 µM	> 100 µM and 4800 µM
CN(C)c1ccc(O)c2c1C[C@H]1C[C@H]3[C@H](N(C)C)C(=O)C(C(N)=O)=C(O)[C@@]3(O)C(=O)C1=C2O	3.38 µM	14.7 µM	5.65 µM	> 100 µM	11.6 µM	> 100	3.42 µM	27.8 µM	5.46 µM	> 100 µM	15.5 µM	88.8 µM	5.09 µM	65.9	4.8 µM	> 100 µM	10.2 µM	> 100 µM	6.7 µM	> 100 µM
COc1cc(/C=C/C(=O)c2c(C)n([O-])c3ccc(Cl)cc3[n+]2=O)cc(OC)c1OC	68 µM	> 100 µM	59.8 µM	> 100 µM	90.9 µM	> 100	35.4 µM	> 100 µM	15.4 µM	> 100 µM	> 100 µM	> 100 µM	> 100 µM	> 100	67.6 µM	> 100 µM	> 100 µM	> 100 µM	25.2 µM	> 100 µM
Cc1ccc(S(=O)(=O)Nc2nc3ccccc3nc2Nc2ccc3nsnc3c2)cc1	2.65 µM and 1.88 µM	11.6 µM and 7.46 µM	3.68 µM and 3.5 µM	> 100 µM	3.2 µM and 3.52 µM	> 100	4.16 µM and 2.7 µM	> 100 µM and 59.4 µM	3.93 µM and 4.35 µM	> 100 µM	17.4 µM and > 81.2 µM	> 100 µM	4.05 µM and 4.35 µM	> 100	3.1 µM and 3.04 µM	46.8 µM and > 100 µM	6.78 µM and 3.1 µM	> 100 µM	4.03 µM and 3.6 µM	> 100 µM
CCCCCCCCCCCC[n+]1ccc(C(N)=O)cc1	1.63 µM	3.05 µM	10.1 µM	26.2 µM	> 100 µM	> 100	1.4 µM	3.5 µM	2.78 µM	11.5 µM	1.47 µM	4.56 µM	2.58 µM	9.7	3.61 µM	12.6 µM	2.18 µM	13.1 µM	2.55 µM	12.8 µM
OC(CNc1ccnc2cc(Cl)ccc12)CNC1CCCCC1 (stereo not drawn)	1.77 µM	3.34 µM	8.12 µM	21.7 µM	18 µM	53.9	10.1 µM	24.4 µM	8.23 µM	21.9 µM	12.6 µM	38.4 µM	1.65 µM	3.11	12 µM	48.4 µM	3.26 µM	12.2 µM	6.15 µM	27 µM
CCCN(CCC)C(=O)[C@H](CC)[C@@H]1CC[C@@H](C)[C@@H]([C@H](C)[C@@H](O)[C@@H](C)C(=O)[C@H](CC)C2O[C@]3(C=C[C@@H](O)[C@]4(CC[C@@](C)([C@H]5CC[C@](O)(CC)[C@H](C)O5)O4)O3)[C@H](C)C[C@@H]2C)O1 (stereo partly drawn)	1.73 µM	3.16 µM	3.18 µM	26.9 µM	2.93 µM	10.3	2.59 µM	10.5 µM	3.43 µM	22.7 µM	2.09 µM	5.27 µM			2.13 µM	6.1 µM	3.1 µM	12.7 µM	2.59 µM	11.7 µM
Oc1ccc(N=Nc2ccc(N=Nc3ccccc3)cc2)cc1	2.1 µM	5.64 µM	2.14 µM	12 µM	3.67 µM	39.5	3.5 µM	18.2 µM	1.63 µM	11.8 µM	4.16 µM	17.3 µM	3.01 µM	10.1	3.95 µM	17.2 µM	2.86 µM	9.68 µM	2.49 µM	12.5 µM
O=C1/C(=C/c2ccc(Cl)cc2)COc2ccc(O)c(O)c21	1.51 µM	2.9 µM	1.79 µM	4.77 µM	1.6 µM	15.8	0.438 µM	2.16 µM	1.44 µM	3.06 µM	1.6 µM	3.21 µM	1.92 µM	4.77	0.724 µM	2.57 µM	1.92 µM	3.98 µM	1.49 µM	3.19 µM
CC1SC(=O)SC1C (stereo not drawn)		> 100 µM		> 100 µM		> 100		> 100 µM		> 100 µM		> 100 µM		> 100		> 100 µM				> 100 µM
CC(C)C[C@@H]1NC(=O)[C@@H]2CCCN2C(=O)[C@@H]2CCCN2C(=O)[C@H](CC(C)C)NC(=O)[C@H](CO)NC(=O)[C@H](CCCCN)NC(=O)[C@H]([C@H](C)O)NC(=O)[C@@H]2CCCC[C@@H](NC1=O)C(=O)N[C@@H](Cc1ccccc1)C(=O)N1CCC[C@H]1C(=O)N[C@@H](CC(=O)O)C(=O)NCC(=O)N[C@@H](CCCN=C(N)N)C(=O)N2	> 50 µM	> 50 µM	> 50 µM	> 50 µM	> 50 µM	> 50	> 50 µM	> 50 µM	> 50 µM	> 50 µM	> 50 µM	> 50 µM			> 50 µM	> 50 µM	> 50 µM	> 50 µM	> 50 µM	> 50 µM
COc1cc(-c2oc3c(OC)c(O)c(OC)c(O)c3c(=O)c2OC)ccc1O		> 100 µM		> 100 µM		> 100		65.9 µM				> 100 µM		96		> 100 µM		> 100 µM		> 100 µM
Cc1cc(C)c(NS(=O)c2cccc(Cl)c2)c(C)c1 (stereo not drawn)				> 100 µM		> 100				> 100 µM		> 100 µM		> 100		> 100 µM		> 100 µM		> 100 µM
